Values of other authors in article PMC9006653 (The Journal of Biological Chemistry, 2022).

Legend:
[1] = test system: 10 human tumor cell lines
[2] = test system: five cancer cell lines

**Q.** With cycloviolacin O2 [cyO2] as the substance, how does the “fold more potent (cytotoxicity) compared to varv A and varv F” value [1] read?
**A.** over 20 fold

**Q.** And the “fold more active than 11 Möbius cyclotides” value [2]?
**A.** over ten-fold
